Data taken from US11058700B2, “Macrocyclic lactones and uses thereof as modulators of purinergic receptors” (City of Hope, priority 2015, dated 2021).

What was measured:
4T1.2 cells = assay: Colony assay, 4T1.2 cells seeded at 100 cells/well, colonies counted after a week; format: cell-based, mouse; details: extended exposure time (Ivermectin during the entire duration of the assay)
Method: (§1) FIGS. 1A-1H. Ivermectin kills breast cancer cells through a mixed apoptotic and necrotic mechanism. FIG. 1A: Mouse (4T1.2) and human (MDA-MB-231) TNBC cells manifest similar sensitivity to Ivermectin. Viability of cells treated with various doses of Ivermectin for 24 h. FIG. 1B: Extended exposure time reduces IC50 values to as low as 2 μM. 4T1.2 cells were seeded at 100 cells/well and individual colonies were counted after a week. Cancer cells were exposed to Ivermectin during the initial 24 h or during the entire duration of the assay. FIG. 1C: MDA-MB-231 breast cancer cells manifest higher sensitivity to Ivermectin compared to normal non-transformed human foreskin fibroblasts (HFFs). FIG. 1D: Flow cytometry analysis showing that cell death proceeds through two distinct pathways: a directly necrotic 7AAD-single positive or Annexin V/PS-single positive apoptotic pathway. FIG. 1E: Kinetics of necrotic versus apoptotic killing of 4T1.2 breast cancer cells. FIG. 1F: Ivermectin-induced cell death can be reversed by inhibition of various controlled cell death pathways. 4T1.2 cells were treated for 4 h with 32 μM Ivermectin in the presence of μM concentrations of Z-vad-fmk, Necrostatin-1, Digoxin, or VX-765, as indicated. FIG. 1G: Activation of Caspase-1, Caspase-3 and cleavage of PARP in 4T1.2 and MDA-MB-231 cells treated with 32 μM for 4 h. […]

breast cancer cells = assay: Induction of autophagy (GFP-LC3 puncta, Western blot LC3 / p62); format: cell-based, mouse, human
Method: FIGS. 6A-6E. Ivermectin induces autophagy. FIG. 6A: Ivermectin induces autophagy in breast cancer cells. MDA-MB-231 GFL-LC3 cells were treated with different doses of Ivermectin for 24 h and formation of green fluorescent puncta was evaluated by confocal fluorescence microscopy. FIG. 6B: Western blot confirming the induction of autophagy in both murine and human breast cancer cells, as evidenced by LC3 lipidation and autophagic degradation of p62(SQSTM1). […] MDA-MB-231 cells (triplicates) were treated with different doses of Ivermectin for up to 24h and surface stained with antibody-specific for the human M6P receptor versus isotype control. Similarly, 4T1.2 and MB231 cells were treated with different doses of Ivermectin for 4-24 h, and were stained with an antibody specific for both human and mouse CRT versus isotype control. Mean fluorescent intensity (MFI) values and ratios versus isotype control were calculated after gating on live/membrane-intact cells. FIG. 6D: Ivermectin (32 μM) induces release of HMGB1 from murine and human TNBC cells (triplicates). […] Asterisk (*) indicates p<0.05 relative to untreated or Ivermectin alone controls, respectively.
Western Blotting. […] Activation and cleavage of caspases was evaluated using antibodies specific for caspase-1 (NOVUS, NBP1-45433) and caspase-3 (Cell Signaling, 9665). […]

[1] = tested on: MDA-MB-231 breast cancer cells; assay: Viability of breast cancer cells compared to normal fibroblasts; format: cell-based; details: MDA-MB-231 vs normal non-transformed human foreskin fibroblasts (HFFs)
Method: as §1, with “pathways.” for “pathways. 4T1.2 cells were treated for 4 h with 32 μM Ivermectin in the presence of μM concentrations of Z-vad-fmk, Necrostatin-1, Digoxin, or VX-765, as indicated. FIG. 1G: Activation of Caspase-1, Caspase-3 and cleavage of PARP in 4T1.2 and MDA-MB-231 cells treated with 32 μM for 4 h.”
Cell viability. […] Following treatment the plates were washed once with PBS and cell viability was measured using the acid phosphatase assay. […] Absorption at 405 nm was measured within 10 min using a multi-well plate reader. Mode of cell death and viability of cells in suspension was evaluated using flow cytometry. […]

## CC[C@H](C)[C@H]1O[C@]2(CC[C@@H]1C)C[C@@H]1C[C@@H](C/C=C(\C)[C@@H](O[C@H]3C[C@H](OC)[C@@H](O[C@H]4C[C@H](OC)[C@@H](O)[C@H](C)O4)[C@H](C)O3)[C@@H](C)/C=C/C=C3\CO[C@@H]4[C@H](O)C(C)=C[C@@H](C(=O)O1)[C@]34O)O2 [Ivermectin]
4T1.2 cells
  IC50: ≥ 2000 nM
Breast cancer cells
  induction of autophagy: potent inducer of autophagy
[1]
  sensitivity of breast cancer cells versus normal cells: higher sensitivity than normal cells
